Legend:
Assay type in all cases: in vivo
[1] = system: Japanese bulrush (Scirpus juncoides Roxb.); experiment: Test Example 1: herbicidal effect by soil application to paddy field; settings: for herbicidal effect, Scirpus juncoides Roxb.: paddy field soil application, active ingredient 1,000 g per 1 hectare, wettable powder added dropwise to water surface the day after sowing, examined on the 21st day after application
Outline: (§1)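 Plants were sown in flooded (3 cm) paddy soil and evaluated for herbicidal effect 21 days after soil application in a greenhouse.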

[2] = system: early watergrass (Echinochloa oryzicola Vasing); experiment: as above; settings: for herbicidal effect, Echinochloa oryzicola Vasing: paddy field soil application, active ingredient 1,000 g per 1 hectare, wettable powder added dropwise to water surface the day after sowing, examined on the 21st day after application
Outline: as §1

[3] = system: heartshape false pickerelweed (Monochoria vaginalis (Burm.f.) C.Presl); experiment: as above; settings: for herbicidal effect, Monochoria vaginalis (Burm. f.) C. Presl: paddy field soil application, active ingredient 1,000 g per 1 hectare, wettable powder added dropwise to water surface the day after sowing, examined on the 21st day after application
Outline: as §1

[4] = system: barnyardgrass (Echinochloa crus-galli (L.) P. Beauv. var. crus-galli); experiment: Test Example 2: herbicidal effect by soil application to upland field; settings: soil surface spray, upland field soil, 1,000 g active ingredient per hectare, 21st day after application
Outline: (§2)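 Pots of field soil, seeds sown and soil-covered; wettable powder diluted in water sprayed on soil at 1,000 g a.i./ha (1,000 L/ha). Greenhouse-grown; herbicidal effect rated per standard at 21 days post-application.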

[5] = system: green foxtail (Setaria viridis (L.) P. Beauv.); experiment: as above; settings: soil surface spray, upland field soil, 1,000 g active ingredient per hectare, 21st day after application
Outline: as §2

[6] = system: slender amaranth (Amaranthus viridis L.); experiment: as above; settings: soil surface spray, upland field soil, 1,000 g active ingredient per hectare, 21st day after application
Outline: as §2

[7] = system: velvetleaf (Abutilon theophrasti medicus); experiment: as above; settings: soil surface spray, upland field soil, 1,000 g active ingredient per hectare, 21st day after application
Outline: as §2

[8] = system: barnyardgrass (Echinochloa crus-galli (L.) P. Beauv. var. crus-galli); experiment: Test Example 3: herbicidal effect by application to upland field (foliage treatment); settings: 14th day after application; for herbicidal effect, Barnyardgrass: foliage treatment, 1,000 g active ingredient per 1 hectare, greenhouse; for herbicidal effect (index), Barnyardgrass: foliage treatment, plants grown two weeks, 1,000 g active ingredient per hectare
Outline: (§3)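 Plants were sown in field soil and raised in a greenhouse for two weeks before foliar spraying. A water-diluted wettable powder was applied at 1,000 g active ingredient per hectare in 1,000 liters per hectare. Herbicidal effect was scored on a standard scale 14 days later.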

[9] = system: green foxtail (Setaria viridis (L.) P. Beauv.); experiment: as above; settings: 14th day after application; for herbicidal effect, Green Foxtail: foliage treatment, 1,000 g active ingredient per 1 hectare, greenhouse; for herbicidal effect (index), Green Foxtail: foliage treatment, plants grown two weeks, 1,000 g active ingredient per hectare
Outline: as §3

[10] = system: slender amaranth (Amaranthus viridis L.); experiment: as above; settings: 14th day after application; for herbicidal effect, Slender Amaranth: foliage treatment, 1,000 g active ingredient per 1 hectare, greenhouse; for herbicidal effect (index), Slender Amaranth: foliage treatment, plants grown two weeks, 1,000 g active ingredient per hectare
Outline: as §3

[11] = system: velvetleaf (Abutilon theophrasti medicus); experiment: as above; settings: 14th day after application; for herbicidal effect, Velvetleaf: foliage treatment, 1,000 g active ingredient per 1 hectare, greenhouse; for herbicidal effect (index), Velvetleaf: foliage treatment, plants grown two weeks, 1,000 g active ingredient per hectare
Outline: as §3

[12] = soil application to paddy field, rated by standard of Table 34

Row | Structure (SMILES) | herbicidal effect, Scirpus juncoides Roxb. [1] | herbicidal effect, Echinochloa oryzicola Vasing [2] | herbicidal effect, Monochoria vaginalis (Burm. f.) C. Presl [3] | herbicidal effect (index), Barnyardgrass [4] | herbicidal effect (index), Green Foxtail [5] | herbicidal effect (index), Slender Amaranth [6] | herbicidal effect (index), Velvetleaf [7] | herbicidal effect, Barnyardgrass [8] | herbicidal effect, Green Foxtail [9] | herbicidal effect, Slender Amaranth [10] | herbicidal effect, Velvetleaf [11] | herbicidal effect (index), Barnyardgrass [8] | herbicidal effect (index), Green Foxtail [9] | herbicidal effect (index), Slender Amaranth [10] | herbicidal effect (index), Velvetleaf [11] | herbicidal effect (index), Scirpus juncoides Roxb. [1, 12] | herbicidal effect (index), Echinochloa oryzicola Vasing [2, 12] | herbicidal effect (index), Monochoria vaginalis (Burm.f.) C.Presl [3, 12]
1 | CCCS(=O)(=O)Oc1c(C(=O)c2ccc(C(F)(F)F)n(-c3cc(F)ccc3F)c2=O)cnn1C [IV-84] | 5 (90% or more of herbicidal effect and crop phytotoxicity) | 5 (90% or more of herbicidal effect and crop phytotoxicity) | 5 (90% or more of herbicidal effect and crop phytotoxicity) | 5 (90% or more of herbicidal effect and crop phytotoxicity) | 5 (90% or more of herbicidal effect and crop phytotoxicity) | 5 (90% or more of herbicidal effect and crop phytotoxicity) | 5 (90% or more of herbicidal effect and crop phytotoxicity) | 4 (70 to less than 90% of herbicidal effect and crop phytotoxicity) | 3 (50 to less than 70% of herbicidal effect and crop phytotoxicity) | 4 (70 to less than 90% of herbicidal effect and crop phytotoxicity) | 5 (90% or more of herbicidal effect and crop phytotoxicity) |  |  |  |  |  |  | 
2 | CCCCNn1c(C(F)(F)F)ccc(C(=O)C2=C(O)CCCC2=O)c1=O [I-161] | 5 (90% or more of herbicidal effect and crop phytotoxicity) | 5 (90% or more of herbicidal effect and crop phytotoxicity) | 5 (90% or more of herbicidal effect and crop phytotoxicity) | 5 (90% or more of herbicidal effect and crop phytotoxicity) | 5 (90% or more of herbicidal effect and crop phytotoxicity) | 5 (90% or more of herbicidal effect and crop phytotoxicity) | 5 (90% or more of herbicidal effect and crop phytotoxicity) | 5 (90% or more of herbicidal effect and crop phytotoxicity) | 5 (90% or more of herbicidal effect and crop phytotoxicity) | 5 (90% or more of herbicidal effect and crop phytotoxicity) | 5 (90% or more of herbicidal effect and crop phytotoxicity) |  |  |  |  |  |  | 
3 | O=C1CCCC(O)=C1C(=O)c1ccc(C(F)(F)F)n(-c2ccc([N+](=O)[O-])cc2)c1=O [I-88] | 5 (90% or more of herbicidal effect and crop phytotoxicity) | 5 (90% or more of herbicidal effect and crop phytotoxicity) | 5 (90% or more of herbicidal effect and crop phytotoxicity) | 5 (90% or more of herbicidal effect and crop phytotoxicity) | 5 (90% or more of herbicidal effect and crop phytotoxicity) | 5 (90% or more of herbicidal effect and crop phytotoxicity) | 5 (90% or more of herbicidal effect and crop phytotoxicity) |  |  |  |  | 5 (90% or more of herbicidal effect and crop phytotoxicity) | 5 (90% or more of herbicidal effect and crop phytotoxicity) | 5 (90% or more of herbicidal effect and crop phytotoxicity) | 5 (90% or more of herbicidal effect and crop phytotoxicity) |  |  | 
4 | Cn1ncc(C(=O)c2ccc(C(F)(F)F)n(-c3cc(F)ccc3F)c2=O)c1O [IV-83] | 5 (90% or more of herbicidal effect and crop phytotoxicity) | 5 (90% or more of herbicidal effect and crop phytotoxicity) | 5 (90% or more of herbicidal effect and crop phytotoxicity) | 5 (90% or more of herbicidal effect and crop phytotoxicity) | 5 (90% or more of herbicidal effect and crop phytotoxicity) | 5 (90% or more of herbicidal effect and crop phytotoxicity) | 5 (90% or more of herbicidal effect and crop phytotoxicity) | 5 (90% or more of herbicidal effect and crop phytotoxicity) | 5 (90% or more of herbicidal effect and crop phytotoxicity) | 5 (90% or more of herbicidal effect and crop phytotoxicity) | 5 (90% or more of herbicidal effect and crop phytotoxicity) |  |  |  |  |  |  | 
5 | O=C1CCCC(O)=C1C(=O)c1ccc(C(F)(F)F)n(-c2ccccc2)c1=O [I-72, 2-[1,2-dihydro-2-oxo-1-phenyl-6-(trifluoromethyl)pyridine-3-carbonyl]-3-hydroxy-2-cyclohexen-1-one] | 5 (90% or more of herbicidal effect and crop phytotoxicity) | 5 (90% or more of herbicidal effect and crop phytotoxicity) | 5 (90% or more of herbicidal effect and crop phytotoxicity) | 5 (90% or more of herbicidal effect and crop phytotoxicity) | 5 (90% or more of herbicidal effect and crop phytotoxicity) | 5 (90% or more of herbicidal effect and crop phytotoxicity) | 5 (90% or more of herbicidal effect and crop phytotoxicity) |  |  |  |  | 5 (90% or more of herbicidal effect and crop phytotoxicity) | 5 (90% or more of herbicidal effect and crop phytotoxicity) | 5 (90% or more of herbicidal effect and crop phytotoxicity) | 5 (90% or more of herbicidal effect and crop phytotoxicity) |  |  | 
6 | O=C1CCCC(O)=C1C(=O)c1ccc2ccccc2n1 [Comparative Compound 2, reference compound] |  |  |  | 3 (50 to less than 70% of herbicidal effect and crop phytotoxicity) | 0 (0 to less than 10% of herbicidal effect and crop phytotoxicity) | 2 (30 to less than 50% of herbicidal effect and crop phytotoxicity) | 2 (30 to less than 50% of herbicidal effect and crop phytotoxicity) | 0 (0 to less than 10% of herbicidal effect and crop phytotoxicity) | 0 (0 to less than 10% of herbicidal effect and crop phytotoxicity) | 1 (10 to less than 30% of herbicidal effect and crop phytotoxicity) | 5 (90% or more of herbicidal effect and crop phytotoxicity) |  |  |  |  | 0 (0 to less than 10% of herbicidal effect and crop phytotoxicity) | 0 (0 to less than 10% of herbicidal effect and crop phytotoxicity) | 0 (0 to less than 10% of herbicidal effect and crop phytotoxicity)
7 | CCCn1c(C(F)(F)F)ccc(C(=O)c2cnn(C)c2O)c1=O [IV-3] | 5 (90% or more of herbicidal effect and crop phytotoxicity) | 5 (90% or more of herbicidal effect and crop phytotoxicity) | 5 (90% or more of herbicidal effect and crop phytotoxicity) | 5 (90% or more of herbicidal effect and crop phytotoxicity) | 5 (90% or more of herbicidal effect and crop phytotoxicity) | 5 (90% or more of herbicidal effect and crop phytotoxicity) | 5 (90% or more of herbicidal effect and crop phytotoxicity) | 5 (90% or more of herbicidal effect and crop phytotoxicity) | 5 (90% or more of herbicidal effect and crop phytotoxicity) | 5 (90% or more of herbicidal effect and crop phytotoxicity) | 5 (90% or more of herbicidal effect and crop phytotoxicity) |  |  |  |  |  |  | 
